The source made the active and inactive calls. The rule behind the calls is not given here.
Tests used:
[1] = target: T1, Muscarinic acetylcholine receptor M2 (Homo sapiens, UniProt P08172); assay: Displacement of [3H]-AFDX-384 from human muscarinic M2 receptor expressed in CHO-K1 cells; assay type: cell-based
T1 sequence (P08172 whole entry): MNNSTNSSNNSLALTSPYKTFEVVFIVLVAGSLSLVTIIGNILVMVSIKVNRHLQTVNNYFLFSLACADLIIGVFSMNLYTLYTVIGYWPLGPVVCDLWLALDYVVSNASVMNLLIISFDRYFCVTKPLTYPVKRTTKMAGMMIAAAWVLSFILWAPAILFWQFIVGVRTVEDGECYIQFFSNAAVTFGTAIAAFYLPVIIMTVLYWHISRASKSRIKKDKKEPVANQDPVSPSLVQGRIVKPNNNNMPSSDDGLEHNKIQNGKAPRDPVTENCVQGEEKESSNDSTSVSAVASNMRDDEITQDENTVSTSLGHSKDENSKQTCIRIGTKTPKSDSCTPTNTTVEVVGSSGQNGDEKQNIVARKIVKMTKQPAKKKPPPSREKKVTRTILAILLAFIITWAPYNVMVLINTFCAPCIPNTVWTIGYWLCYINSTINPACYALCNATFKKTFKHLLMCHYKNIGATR

[2] = target: Mitogen-activated protein kinase 14 (Homo sapiens, UniProt Q16539); assay: Binding affinity to p38alpha by enzyme assay
[3] = Clearance in rat plasma at 1 mg/kg, iv and 2 mg/kg, po; assay type: ADME, organism-based
[4] = Binding affinity to L-type Ca2+ channel DHP binding site by radioligand displacement assay
[5] = target: Muscarinic acetylcholine receptor M3 (Homo sapiens, UniProt P20309); assay: Displacement of [3H]-4-DAMP from human muscarinic M3 receptor expressed in BHK-21 cells; assay type: cell-based
[6] = target: Melatonin receptor type 1A (Homo sapiens, UniProt P48039); assay: Binding affinity to human MT1 receptor by radioligand displacement assay
Acetylcholinesterase = Acetylcholinesterase (Homo sapiens, UniProt P22303); assay: Binding affinity to human acetylcholine esterase by radioligand displacement assay
D(3) dopamine receptor = D(3) dopamine receptor (Homo sapiens, UniProt P35462); assay: Binding affinity to human dopamine D3 receptor by radioligand displacement assay
[7] = target: T2, Muscarinic acetylcholine receptor M5 (Homo sapiens, UniProt P08912); assay: Binding affinity to human muscarinic M5 receptor by radioligand displacement assay
T2 sequence (P08912 whole entry): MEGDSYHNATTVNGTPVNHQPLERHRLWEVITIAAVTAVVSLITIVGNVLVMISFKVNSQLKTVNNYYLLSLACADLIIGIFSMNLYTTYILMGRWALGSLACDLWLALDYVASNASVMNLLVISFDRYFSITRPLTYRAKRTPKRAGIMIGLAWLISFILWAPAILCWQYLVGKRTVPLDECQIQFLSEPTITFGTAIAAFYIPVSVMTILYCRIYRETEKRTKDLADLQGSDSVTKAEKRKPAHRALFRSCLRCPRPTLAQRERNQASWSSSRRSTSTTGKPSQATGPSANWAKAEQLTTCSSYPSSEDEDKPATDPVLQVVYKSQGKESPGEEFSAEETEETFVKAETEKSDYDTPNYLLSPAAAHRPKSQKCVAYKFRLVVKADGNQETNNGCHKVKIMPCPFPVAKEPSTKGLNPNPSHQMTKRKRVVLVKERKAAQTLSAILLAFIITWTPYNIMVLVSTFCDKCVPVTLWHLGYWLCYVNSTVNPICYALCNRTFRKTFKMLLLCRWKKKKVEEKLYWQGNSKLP

[8] = target: Alpha-2A adrenergic receptor (Homo sapiens, UniProt P08913); assay: Binding affinity to human adrenergic alpha2A receptor by radioligand displacement assay
[9] = Binding affinity to human muscle-type nicotinic acetylcholine receptor by radioligand displacement assay
Melanocortin receptor 4 = Melanocortin receptor 4 (Homo sapiens, UniProt P32245); assay: Binding affinity to human MC4 receptor by radioligand displacement assay
[10] = target: T3, Muscarinic acetylcholine receptor M1 (Homo sapiens) (UniProt P11229); assay: Agonist activity at human muscarinic M1 receptor expressed in CHO-K1 cells assessed as increase of acetylcholine-induced calcium flux by FLIPR assay in presence of atropine; assay type: functional, cell-based
T3 sequence (whole entry): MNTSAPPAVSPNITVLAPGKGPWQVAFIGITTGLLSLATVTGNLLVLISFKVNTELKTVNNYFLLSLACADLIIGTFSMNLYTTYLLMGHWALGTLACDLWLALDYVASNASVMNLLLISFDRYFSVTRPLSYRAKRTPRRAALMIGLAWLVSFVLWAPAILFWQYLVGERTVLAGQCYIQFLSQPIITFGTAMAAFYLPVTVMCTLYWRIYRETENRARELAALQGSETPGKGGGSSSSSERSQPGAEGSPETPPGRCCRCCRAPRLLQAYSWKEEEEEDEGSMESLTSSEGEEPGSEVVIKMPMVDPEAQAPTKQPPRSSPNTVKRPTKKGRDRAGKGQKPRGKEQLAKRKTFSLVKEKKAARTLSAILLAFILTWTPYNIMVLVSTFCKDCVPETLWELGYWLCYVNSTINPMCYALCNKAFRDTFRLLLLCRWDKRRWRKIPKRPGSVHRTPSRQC

[11] = target: T4, Muscarinic acetylcholine receptor M2 (Homo sapiens) (UniProt P08172); assay: Agonist activity at human muscarinic M2 receptor expressed in CHO-K1 cells coexpressing Galpha16 subunit assessed as increase of acetylcholine-induced calcium flux at 10 uM by FLIPR assay relative to acetylcholine; assay type: functional, cell-based
T4 sequence (whole entry): T1 sequence (P08172 whole entry)

Histamine H1 receptor = Histamine H1 receptor (Homo sapiens, UniProt P35367); assay: Binding affinity to human histamine H1 receptor by radioligand displacement assay
Mu-type opioid receptor = Mu-type opioid receptor (Homo sapiens, UniProt P35372); assay: Binding affinity to human mu opioid receptor agonist site by radioligand displacement assay
[12] = Ratio of brain to plasma AUC in Sprague-Dawley rat at 10 mg/kg, sc; assay type: ADME, organism-based; design: dose 10 mg/kg, route subcutaneous
[13] = Binding affinity to PDE5 by enzyme assay
[14] = target: T5, Muscarinic acetylcholine receptor M4 (Homo sapiens, UniProt P08173); assay: Binding affinity to human muscarinic M4 receptor by radioligand displacement assay
T5 sequence (P08173 whole entry): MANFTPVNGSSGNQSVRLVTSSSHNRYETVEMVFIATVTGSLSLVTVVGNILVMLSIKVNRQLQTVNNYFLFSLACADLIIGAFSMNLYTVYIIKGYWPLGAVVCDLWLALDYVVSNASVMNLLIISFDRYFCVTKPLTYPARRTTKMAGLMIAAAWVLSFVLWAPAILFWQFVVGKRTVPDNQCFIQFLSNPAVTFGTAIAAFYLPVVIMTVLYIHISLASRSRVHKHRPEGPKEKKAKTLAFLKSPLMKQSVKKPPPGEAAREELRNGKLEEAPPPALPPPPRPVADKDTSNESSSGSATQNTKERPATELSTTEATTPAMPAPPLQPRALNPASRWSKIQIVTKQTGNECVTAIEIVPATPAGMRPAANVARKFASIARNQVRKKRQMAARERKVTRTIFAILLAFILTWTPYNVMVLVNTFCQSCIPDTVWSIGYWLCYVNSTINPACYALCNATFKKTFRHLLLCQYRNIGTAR

Sequence of Acetylcholinesterase (P22303 whole entry): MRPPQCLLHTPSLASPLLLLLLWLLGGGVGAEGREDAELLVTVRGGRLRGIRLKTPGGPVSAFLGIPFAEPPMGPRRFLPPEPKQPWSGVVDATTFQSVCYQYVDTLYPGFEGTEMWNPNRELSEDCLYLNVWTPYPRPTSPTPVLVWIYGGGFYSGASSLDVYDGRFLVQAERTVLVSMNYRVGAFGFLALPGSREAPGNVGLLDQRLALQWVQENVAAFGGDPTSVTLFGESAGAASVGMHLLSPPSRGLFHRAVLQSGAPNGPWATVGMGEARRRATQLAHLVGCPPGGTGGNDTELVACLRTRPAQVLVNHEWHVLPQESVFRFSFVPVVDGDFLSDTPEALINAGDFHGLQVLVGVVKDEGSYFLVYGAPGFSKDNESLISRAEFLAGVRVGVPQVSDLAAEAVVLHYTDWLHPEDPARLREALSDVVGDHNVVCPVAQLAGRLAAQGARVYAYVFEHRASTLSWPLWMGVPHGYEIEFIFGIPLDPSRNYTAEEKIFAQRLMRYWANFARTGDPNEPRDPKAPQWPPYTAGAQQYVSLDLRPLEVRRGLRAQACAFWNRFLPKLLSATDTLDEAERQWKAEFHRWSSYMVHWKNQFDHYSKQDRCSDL
Sequence of Melanocortin receptor 4 (P32245 whole entry): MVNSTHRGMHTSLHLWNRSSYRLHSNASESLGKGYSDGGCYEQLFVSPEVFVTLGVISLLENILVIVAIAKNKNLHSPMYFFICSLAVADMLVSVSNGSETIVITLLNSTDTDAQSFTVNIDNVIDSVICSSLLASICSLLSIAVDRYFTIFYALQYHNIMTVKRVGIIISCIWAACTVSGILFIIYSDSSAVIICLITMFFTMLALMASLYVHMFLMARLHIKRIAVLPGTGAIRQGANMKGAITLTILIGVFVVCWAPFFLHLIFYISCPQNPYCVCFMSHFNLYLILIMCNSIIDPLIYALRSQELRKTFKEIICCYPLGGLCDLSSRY
Sequence of D(3) dopamine receptor (P35462 whole entry): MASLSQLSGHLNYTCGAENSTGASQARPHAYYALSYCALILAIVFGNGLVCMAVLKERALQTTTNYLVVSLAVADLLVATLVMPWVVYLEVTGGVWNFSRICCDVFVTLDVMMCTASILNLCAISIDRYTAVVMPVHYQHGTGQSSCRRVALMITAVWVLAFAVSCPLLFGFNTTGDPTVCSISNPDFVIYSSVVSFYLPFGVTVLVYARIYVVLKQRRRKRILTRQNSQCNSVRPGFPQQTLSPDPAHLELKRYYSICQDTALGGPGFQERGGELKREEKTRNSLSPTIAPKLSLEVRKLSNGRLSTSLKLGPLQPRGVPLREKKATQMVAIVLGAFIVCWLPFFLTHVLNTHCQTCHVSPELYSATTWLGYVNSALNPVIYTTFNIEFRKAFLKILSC
Sequence of Mitogen-activated protein kinase 14 (Q16539 whole entry): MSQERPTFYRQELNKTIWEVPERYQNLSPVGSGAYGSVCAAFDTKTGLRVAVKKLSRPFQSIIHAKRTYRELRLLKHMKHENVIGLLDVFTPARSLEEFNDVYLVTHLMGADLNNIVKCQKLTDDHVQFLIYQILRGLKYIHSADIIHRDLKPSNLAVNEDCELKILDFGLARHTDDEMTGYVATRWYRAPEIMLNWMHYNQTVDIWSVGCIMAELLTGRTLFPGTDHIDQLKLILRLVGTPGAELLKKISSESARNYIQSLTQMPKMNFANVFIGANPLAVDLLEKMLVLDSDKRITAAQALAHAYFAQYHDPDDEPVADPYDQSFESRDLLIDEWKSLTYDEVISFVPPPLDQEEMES
Sequence of Mu-type opioid receptor (P35372 whole entry): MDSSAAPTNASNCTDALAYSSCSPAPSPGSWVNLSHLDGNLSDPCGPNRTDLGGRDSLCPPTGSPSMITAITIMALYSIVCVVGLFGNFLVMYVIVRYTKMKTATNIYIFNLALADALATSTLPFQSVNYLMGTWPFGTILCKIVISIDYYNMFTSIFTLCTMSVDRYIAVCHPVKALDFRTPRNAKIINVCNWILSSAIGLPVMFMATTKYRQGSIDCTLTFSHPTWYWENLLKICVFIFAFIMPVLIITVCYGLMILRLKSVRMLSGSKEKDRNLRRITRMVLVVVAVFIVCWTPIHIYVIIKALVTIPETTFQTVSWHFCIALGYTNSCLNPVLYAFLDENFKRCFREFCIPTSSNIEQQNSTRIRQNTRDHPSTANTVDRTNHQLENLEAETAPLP
Sequence of Muscarinic acetylcholine receptor M3 (P20309 whole entry): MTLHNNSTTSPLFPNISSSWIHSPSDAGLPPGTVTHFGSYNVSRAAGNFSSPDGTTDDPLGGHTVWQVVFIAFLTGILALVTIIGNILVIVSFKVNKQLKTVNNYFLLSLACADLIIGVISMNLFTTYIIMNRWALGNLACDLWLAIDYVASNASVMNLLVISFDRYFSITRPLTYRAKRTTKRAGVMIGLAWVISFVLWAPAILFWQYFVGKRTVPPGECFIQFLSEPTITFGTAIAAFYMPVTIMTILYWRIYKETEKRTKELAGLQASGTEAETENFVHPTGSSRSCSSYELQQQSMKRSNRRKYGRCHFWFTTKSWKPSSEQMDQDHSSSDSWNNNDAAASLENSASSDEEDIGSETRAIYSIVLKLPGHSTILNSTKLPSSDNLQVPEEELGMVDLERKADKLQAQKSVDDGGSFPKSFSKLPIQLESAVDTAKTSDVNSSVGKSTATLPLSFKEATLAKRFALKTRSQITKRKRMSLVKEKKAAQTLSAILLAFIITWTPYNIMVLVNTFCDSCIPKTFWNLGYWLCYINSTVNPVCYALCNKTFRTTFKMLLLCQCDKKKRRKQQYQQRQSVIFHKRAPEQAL
Sequence of Alpha-2A adrenergic receptor (P08913 whole entry): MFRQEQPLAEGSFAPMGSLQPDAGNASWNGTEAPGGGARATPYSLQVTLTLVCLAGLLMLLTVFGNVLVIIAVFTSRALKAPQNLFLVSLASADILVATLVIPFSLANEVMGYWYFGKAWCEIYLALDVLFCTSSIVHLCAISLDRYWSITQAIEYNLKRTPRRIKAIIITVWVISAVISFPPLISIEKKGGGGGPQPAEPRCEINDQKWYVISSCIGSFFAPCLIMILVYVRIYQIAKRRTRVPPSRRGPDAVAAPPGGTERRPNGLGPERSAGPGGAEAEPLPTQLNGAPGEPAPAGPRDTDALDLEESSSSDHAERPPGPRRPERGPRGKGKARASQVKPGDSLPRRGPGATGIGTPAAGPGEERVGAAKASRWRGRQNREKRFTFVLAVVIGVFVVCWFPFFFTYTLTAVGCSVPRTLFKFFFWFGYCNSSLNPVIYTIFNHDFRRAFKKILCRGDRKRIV
Sequence of Histamine H1 receptor (P35367 whole entry): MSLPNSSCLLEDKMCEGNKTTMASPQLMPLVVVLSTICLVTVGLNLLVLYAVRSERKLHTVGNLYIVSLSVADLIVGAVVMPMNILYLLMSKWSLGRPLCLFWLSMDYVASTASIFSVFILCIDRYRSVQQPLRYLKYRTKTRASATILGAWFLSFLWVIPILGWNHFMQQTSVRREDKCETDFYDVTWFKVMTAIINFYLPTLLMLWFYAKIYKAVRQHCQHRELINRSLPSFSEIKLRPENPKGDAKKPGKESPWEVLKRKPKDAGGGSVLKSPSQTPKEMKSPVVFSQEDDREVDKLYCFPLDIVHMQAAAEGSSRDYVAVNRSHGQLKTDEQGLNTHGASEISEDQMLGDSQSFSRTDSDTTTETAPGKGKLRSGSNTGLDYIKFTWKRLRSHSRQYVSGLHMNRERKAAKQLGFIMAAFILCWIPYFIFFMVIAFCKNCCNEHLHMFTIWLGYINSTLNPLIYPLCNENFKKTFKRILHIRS
Sequence of Melatonin receptor type 1A (P48039 whole entry): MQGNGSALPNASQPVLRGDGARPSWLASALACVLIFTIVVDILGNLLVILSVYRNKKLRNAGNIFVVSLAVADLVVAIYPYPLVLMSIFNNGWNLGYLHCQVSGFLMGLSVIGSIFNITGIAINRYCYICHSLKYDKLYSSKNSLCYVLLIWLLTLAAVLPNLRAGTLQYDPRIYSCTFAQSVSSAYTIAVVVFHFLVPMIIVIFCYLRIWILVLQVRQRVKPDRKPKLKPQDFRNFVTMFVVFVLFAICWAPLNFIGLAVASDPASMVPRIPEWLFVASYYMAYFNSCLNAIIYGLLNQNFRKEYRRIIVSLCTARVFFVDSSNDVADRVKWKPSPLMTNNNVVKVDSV

Structure (SMILES): O=C(Cc1ccccc1)NC1CCN(CCCN2C(=O)COc3ccccc32)CC1
- Ki [1]: 2200 nM
- Ki [2]: ≥ 1000 nM
- clearance [3]: 83.3 mL/min/kg
- Ki [4]: ≥ 1000 nM
- Ki [5]: 7000 nM
- Ki [6]: ≥ 1000 nM
- Ki (Acetylcholinesterase): ≥ 1000 nM
- Ki (D(3) dopamine receptor): ≥ 1000 nM
- Ki [7]: ≥ 1000 nM
- Ki [8]: ≥ 1000 nM
- Ki [9]: ≥ 1000 nM
- Ki (Melanocortin receptor 4): ≥ 1000 nM
- Activity [10]: inactive
- Emax [11]: 0%
- Ki (Histamine H1 receptor): 780 nM
- Ki (Mu-type opioid receptor): ≥ 1000 nM
- Kp [12]: 0.2
- Ki [13]: ≥ 1000 nM
- Ki [14]: ≥ 1000 nM
